Laboratory results as given in ChEMBL document CHEMBL1201862, “PubChem BioAssay data set” (2004).
Calls of active or inactive are those of the source.

Experiments:
Cytochrome P450 2D6 = Cytochrome P450 2D6 (Homo sapiens, UniProt P10635);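 further: CYP2D6 member of a cytochrome P450 panel assay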
Cytochrome P450 2C9 = Cytochrome P450 2C9 (Homo sapiens, UniProt P11712)
[1] = viability of uninfected HEp-2 cells – cell-based, HTS, cytotoxicity control for RSV inhibitor project, dose response (AID 2410); assay type: functional; details: human respiratory syncytial virus
Vero [2] = assay: cells; assay type: functional, cell-based; details: Chlorocebus sabaeus
[3] = molecular target: T1, Kappa-type opioid receptor (Homo sapiens, UniProt P41145); assay type: functional
T1 sequence (P41145 whole entry): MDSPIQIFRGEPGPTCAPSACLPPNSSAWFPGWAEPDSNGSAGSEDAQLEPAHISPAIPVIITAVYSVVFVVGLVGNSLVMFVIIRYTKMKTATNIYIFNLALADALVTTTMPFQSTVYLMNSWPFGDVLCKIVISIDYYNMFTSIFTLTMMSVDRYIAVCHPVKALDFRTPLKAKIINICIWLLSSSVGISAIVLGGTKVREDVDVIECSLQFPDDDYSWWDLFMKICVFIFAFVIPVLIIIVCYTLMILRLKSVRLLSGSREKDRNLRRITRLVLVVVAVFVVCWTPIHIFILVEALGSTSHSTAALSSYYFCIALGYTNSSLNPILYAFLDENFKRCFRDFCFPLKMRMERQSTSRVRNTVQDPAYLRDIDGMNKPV

[4] = molecular target: T1, Kappa-type opioid receptor; assay type: functional; remark: listed apart in the source
[5] = Counterscreen for AddAB inhibitors: absorbance-based bacterial cell-based high throughput dose response assay for inhibitors of bacterial viability. [Related pubchem assays (depositor defined):AID435030, AID449728, AID449731, AID488942, AID488955, AID488956]; assay type: functional
Beta-galactosidase = Beta-galactosidase (Escherichia coli, UniProt Q8VNN2); assay type: functional
Beta-galactosidase, sequence (Q8VNN2 whole entry): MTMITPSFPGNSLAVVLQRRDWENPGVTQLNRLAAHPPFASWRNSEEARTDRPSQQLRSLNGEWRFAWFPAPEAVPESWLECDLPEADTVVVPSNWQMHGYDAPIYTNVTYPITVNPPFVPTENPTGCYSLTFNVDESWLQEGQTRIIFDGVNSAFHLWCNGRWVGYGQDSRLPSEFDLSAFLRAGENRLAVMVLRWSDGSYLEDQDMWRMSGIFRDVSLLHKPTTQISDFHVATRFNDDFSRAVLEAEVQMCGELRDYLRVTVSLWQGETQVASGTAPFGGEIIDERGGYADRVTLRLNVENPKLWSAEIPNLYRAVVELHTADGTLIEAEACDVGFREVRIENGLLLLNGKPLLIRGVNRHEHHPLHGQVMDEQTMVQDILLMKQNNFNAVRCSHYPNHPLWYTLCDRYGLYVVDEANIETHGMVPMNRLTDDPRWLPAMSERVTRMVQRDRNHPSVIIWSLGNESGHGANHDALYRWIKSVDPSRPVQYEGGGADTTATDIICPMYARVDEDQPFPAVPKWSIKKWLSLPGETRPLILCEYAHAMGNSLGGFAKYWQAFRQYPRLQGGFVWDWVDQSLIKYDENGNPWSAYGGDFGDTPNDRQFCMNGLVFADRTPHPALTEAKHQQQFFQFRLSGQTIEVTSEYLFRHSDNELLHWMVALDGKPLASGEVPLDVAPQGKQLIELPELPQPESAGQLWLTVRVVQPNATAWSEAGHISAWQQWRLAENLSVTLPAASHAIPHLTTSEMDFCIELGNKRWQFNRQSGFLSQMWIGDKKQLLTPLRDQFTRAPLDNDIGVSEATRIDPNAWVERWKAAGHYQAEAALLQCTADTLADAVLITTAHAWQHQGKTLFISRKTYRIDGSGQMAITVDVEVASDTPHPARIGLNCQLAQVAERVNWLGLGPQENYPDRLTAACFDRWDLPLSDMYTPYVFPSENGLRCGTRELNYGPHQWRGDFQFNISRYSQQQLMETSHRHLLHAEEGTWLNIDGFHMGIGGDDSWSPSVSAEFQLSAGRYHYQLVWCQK

Exodeoxyribonuclease V = molecular target: T2, Exodeoxyribonuclease V (Escherichia coli (strain K12), UniProt P04993+P07648+P08394); assay: RecBCD inhibition via phage-restricted bacterial growth – absorbance, V66 E. coli, mutant T4 phage, counter-screen for AddAB inhibitor project, dose response (AID 492957); assay type: functional, cell-based, Escherichia coli str. K-12 substr. MG1655
T2 sequence (P04993 whole entry): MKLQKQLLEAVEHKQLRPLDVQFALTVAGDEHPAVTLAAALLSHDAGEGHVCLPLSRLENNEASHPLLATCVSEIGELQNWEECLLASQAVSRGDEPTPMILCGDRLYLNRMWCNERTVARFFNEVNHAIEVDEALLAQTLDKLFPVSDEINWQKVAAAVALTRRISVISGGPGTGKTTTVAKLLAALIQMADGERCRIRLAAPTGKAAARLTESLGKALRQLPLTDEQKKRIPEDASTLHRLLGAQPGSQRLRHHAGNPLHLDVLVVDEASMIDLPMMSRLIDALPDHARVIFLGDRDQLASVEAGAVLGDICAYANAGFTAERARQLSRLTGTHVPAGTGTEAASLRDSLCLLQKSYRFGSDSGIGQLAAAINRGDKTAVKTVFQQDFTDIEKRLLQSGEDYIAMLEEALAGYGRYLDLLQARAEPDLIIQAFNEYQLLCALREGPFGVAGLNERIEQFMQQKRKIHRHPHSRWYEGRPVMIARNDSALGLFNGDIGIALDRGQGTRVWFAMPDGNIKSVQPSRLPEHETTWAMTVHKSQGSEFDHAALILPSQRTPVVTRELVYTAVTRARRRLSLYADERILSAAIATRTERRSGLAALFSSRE
T2 sequence (P07648 whole entry): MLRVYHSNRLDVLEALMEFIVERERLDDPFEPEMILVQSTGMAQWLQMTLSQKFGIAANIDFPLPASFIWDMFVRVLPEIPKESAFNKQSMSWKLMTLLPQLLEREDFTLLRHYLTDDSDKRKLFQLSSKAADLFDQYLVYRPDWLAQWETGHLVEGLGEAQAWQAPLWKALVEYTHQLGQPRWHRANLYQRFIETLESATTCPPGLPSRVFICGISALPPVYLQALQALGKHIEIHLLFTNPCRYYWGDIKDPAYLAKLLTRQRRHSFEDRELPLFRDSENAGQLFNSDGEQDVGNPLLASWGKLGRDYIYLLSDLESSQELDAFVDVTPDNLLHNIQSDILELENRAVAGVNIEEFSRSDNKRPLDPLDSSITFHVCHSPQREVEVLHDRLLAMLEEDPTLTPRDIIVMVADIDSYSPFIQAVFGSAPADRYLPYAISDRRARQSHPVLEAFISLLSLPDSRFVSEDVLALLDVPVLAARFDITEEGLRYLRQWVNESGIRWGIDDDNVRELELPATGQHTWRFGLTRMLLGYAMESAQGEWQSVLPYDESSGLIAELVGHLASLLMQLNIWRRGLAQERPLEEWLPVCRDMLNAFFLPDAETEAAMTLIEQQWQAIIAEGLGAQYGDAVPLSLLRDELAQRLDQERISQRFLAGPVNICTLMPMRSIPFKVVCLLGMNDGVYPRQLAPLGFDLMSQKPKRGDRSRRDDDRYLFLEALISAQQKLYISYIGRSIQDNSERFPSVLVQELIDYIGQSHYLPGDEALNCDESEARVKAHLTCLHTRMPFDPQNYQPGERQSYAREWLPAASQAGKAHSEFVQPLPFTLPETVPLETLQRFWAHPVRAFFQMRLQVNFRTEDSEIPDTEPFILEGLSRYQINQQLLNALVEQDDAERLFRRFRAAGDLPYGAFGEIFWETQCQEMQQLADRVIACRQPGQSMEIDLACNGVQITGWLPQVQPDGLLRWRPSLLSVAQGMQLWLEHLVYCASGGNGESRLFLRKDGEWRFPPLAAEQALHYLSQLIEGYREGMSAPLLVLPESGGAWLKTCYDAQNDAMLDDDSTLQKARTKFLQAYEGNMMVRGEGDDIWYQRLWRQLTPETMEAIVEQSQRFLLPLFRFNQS
T2 sequence (P08394 whole entry): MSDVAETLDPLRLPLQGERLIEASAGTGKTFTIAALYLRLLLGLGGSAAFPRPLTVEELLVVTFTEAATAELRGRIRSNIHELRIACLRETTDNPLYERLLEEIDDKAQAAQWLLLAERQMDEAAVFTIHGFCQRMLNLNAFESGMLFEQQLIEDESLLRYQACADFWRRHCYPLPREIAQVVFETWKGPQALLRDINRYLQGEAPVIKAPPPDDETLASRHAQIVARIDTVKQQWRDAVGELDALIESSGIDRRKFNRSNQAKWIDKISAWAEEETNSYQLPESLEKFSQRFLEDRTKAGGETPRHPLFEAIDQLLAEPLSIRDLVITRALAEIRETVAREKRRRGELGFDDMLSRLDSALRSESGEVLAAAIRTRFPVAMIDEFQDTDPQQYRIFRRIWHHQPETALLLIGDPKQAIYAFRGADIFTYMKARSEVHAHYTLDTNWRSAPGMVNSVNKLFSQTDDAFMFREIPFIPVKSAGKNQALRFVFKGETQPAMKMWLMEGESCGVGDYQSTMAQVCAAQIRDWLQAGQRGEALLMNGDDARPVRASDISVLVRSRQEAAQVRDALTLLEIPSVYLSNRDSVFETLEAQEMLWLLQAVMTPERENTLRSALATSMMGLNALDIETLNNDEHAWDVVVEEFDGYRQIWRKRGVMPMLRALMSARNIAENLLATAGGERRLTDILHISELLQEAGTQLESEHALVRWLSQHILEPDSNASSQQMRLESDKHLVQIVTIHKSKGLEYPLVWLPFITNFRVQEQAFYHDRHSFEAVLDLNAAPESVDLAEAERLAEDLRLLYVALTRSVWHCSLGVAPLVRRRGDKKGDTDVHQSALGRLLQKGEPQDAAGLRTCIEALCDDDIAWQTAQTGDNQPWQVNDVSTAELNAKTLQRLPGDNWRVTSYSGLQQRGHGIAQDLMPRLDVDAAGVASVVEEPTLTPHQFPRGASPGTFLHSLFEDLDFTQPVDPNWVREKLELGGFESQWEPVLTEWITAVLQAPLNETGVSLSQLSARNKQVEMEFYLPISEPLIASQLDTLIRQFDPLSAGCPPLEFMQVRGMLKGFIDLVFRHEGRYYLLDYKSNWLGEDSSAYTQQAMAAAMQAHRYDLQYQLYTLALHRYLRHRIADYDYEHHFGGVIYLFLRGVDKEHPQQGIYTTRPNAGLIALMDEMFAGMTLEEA

[6] = molecular target: T3, Heat shock factor protein 1 (Mus musculus, UniProt P38532); assay: decrease of HSF1-responsive luciferase luminescence – cell-based, NIH3T3, dose retest, confirmation (AID 2382); assay type: functional;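 further: NIH3T3 fibroblasts with HSF1-driven luciferase reporter stressed by proteasome inhibitor MG132; luminescence from HSF1-driven luciferase expression after 8 hours of MG132 stress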
T3 sequence (P38532 whole entry): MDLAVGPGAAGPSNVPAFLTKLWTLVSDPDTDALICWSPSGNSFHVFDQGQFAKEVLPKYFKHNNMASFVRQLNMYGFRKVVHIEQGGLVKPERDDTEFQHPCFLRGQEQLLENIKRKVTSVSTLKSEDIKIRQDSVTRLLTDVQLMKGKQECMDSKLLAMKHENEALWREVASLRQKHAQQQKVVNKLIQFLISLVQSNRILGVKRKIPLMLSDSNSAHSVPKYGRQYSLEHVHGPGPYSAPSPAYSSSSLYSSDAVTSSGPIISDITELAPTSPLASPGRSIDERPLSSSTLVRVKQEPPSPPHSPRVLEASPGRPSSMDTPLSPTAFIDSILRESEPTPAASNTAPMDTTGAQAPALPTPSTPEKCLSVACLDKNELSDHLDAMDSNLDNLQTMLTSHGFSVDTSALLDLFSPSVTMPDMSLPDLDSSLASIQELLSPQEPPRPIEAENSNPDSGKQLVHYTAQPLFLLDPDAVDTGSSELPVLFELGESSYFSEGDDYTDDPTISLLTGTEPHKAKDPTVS

Nonstructural protein 1 = Nonstructural protein 1 (Influenza A virus, UniProt Q194T2); assay type: functional, Influenza A virus (A/California/07/2009(H1N1))
Nonstructural protein 1, sequence (Q194T2 whole entry): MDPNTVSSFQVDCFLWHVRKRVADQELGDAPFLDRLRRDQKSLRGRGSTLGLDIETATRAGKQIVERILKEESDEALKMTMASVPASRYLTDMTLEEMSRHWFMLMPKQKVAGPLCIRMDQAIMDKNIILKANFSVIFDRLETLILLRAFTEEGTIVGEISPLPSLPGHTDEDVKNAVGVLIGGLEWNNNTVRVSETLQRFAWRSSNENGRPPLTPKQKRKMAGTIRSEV

[7] = molecular target: Intestinal-type alkaline phosphatase (Homo sapiens, UniProt P09923); assay: inhibition of human intestinal alkaline phosphatase – biochemical, dose response (AID 488876); assay type: functional
Intestinal-type alkaline phosphatase (Homo sapiens, UniProt P09923), sequence (P09923 whole entry): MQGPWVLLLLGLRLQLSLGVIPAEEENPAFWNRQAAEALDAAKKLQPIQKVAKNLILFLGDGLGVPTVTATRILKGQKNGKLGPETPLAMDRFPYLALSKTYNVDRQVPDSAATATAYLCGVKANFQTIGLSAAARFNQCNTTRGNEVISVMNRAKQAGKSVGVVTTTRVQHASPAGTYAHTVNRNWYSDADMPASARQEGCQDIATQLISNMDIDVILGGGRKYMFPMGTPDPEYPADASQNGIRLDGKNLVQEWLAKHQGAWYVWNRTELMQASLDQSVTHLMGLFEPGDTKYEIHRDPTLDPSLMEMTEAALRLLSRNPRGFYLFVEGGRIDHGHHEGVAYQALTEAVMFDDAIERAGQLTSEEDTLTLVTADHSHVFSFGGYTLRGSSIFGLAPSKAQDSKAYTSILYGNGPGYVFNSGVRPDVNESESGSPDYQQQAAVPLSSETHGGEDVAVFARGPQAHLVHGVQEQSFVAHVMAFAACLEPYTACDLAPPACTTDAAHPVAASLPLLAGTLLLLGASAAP

[8] = molecular target: T4, Alkaline phosphatase, tissue-nonspecific isozyme (Homo sapiens, UniProt P05186); assay: TNAP enzyme inhibition by screening hits, dose response, selectivity assay for mouse IAP inhibitor project, biochemical, human TNAP, uHTS hits (AID 488906); assay type: functional
T4 sequence (P05186 whole entry): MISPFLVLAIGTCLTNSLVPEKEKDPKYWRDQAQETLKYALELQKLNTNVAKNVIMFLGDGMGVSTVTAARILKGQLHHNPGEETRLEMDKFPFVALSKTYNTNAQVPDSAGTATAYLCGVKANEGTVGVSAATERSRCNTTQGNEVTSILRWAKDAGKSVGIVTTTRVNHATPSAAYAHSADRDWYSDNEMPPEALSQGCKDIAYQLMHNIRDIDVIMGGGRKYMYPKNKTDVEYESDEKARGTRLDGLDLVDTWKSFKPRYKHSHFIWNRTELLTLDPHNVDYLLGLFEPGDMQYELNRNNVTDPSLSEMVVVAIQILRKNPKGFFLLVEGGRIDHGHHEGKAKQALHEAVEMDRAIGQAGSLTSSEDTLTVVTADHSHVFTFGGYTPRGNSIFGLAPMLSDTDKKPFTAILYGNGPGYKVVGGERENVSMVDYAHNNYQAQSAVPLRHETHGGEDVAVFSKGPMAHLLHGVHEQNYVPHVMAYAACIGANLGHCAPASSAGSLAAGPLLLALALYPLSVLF

[9] = molecular target: Intestinal-type alkaline phosphatase (Mus musculus, UniProt P24822); assay: PubChem AID 488785; assay type: functional
Intestinal-type alkaline phosphatase (Mus musculus, UniProt P24822), sequence (P24822 whole entry): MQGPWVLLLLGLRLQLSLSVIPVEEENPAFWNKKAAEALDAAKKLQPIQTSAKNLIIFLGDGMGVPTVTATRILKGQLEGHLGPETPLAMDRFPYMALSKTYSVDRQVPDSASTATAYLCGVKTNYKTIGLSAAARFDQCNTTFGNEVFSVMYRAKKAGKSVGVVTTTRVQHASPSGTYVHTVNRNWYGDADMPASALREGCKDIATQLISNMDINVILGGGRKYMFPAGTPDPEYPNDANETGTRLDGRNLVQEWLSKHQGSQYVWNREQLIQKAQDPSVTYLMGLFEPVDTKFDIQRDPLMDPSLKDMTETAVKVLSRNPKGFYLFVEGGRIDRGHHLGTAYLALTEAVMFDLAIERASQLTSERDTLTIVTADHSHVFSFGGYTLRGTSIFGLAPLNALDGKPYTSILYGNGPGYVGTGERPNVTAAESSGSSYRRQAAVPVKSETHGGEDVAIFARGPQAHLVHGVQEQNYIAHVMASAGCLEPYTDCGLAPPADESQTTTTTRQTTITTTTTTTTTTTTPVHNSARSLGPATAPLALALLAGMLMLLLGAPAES

Vero [10] = assay: viability of Vero cells under compound – cytotoxicity control for flavivirus capping enzyme inhibitors (AID 588742); assay type: functional; details: Chlorocebus sabaeus
Vero [11] = assay: cells; assay type: functional; details: Chlorocebus sabaeus
[12] = molecular target: Glucose-6-phosphate 1-dehydrogenase (Homo sapiens, UniProt P11413); assay: inhibition of Homo sapiens G6PD, dose series – biochemical, fluorescence, selectivity assay for P. falciparum G6PD inhibitor project, dose response (AID 504792); assay type: functional
Glucose-6-phosphate 1-dehydrogenase, sequence (P11413 whole entry): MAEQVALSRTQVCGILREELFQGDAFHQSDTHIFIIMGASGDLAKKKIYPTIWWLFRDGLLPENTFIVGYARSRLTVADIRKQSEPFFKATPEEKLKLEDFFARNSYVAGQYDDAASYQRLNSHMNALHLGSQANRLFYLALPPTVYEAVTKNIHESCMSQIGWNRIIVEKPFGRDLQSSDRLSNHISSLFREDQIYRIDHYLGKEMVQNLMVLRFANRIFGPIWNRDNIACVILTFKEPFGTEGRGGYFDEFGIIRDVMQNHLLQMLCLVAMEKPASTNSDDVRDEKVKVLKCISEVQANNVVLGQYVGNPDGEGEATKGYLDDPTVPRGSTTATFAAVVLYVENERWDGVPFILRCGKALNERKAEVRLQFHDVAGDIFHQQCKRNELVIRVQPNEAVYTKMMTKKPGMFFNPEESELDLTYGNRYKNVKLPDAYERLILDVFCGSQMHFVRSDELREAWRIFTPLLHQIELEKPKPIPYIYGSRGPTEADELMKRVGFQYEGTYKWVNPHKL

Cytochrome P450 2C9, sequence (P11712 whole entry): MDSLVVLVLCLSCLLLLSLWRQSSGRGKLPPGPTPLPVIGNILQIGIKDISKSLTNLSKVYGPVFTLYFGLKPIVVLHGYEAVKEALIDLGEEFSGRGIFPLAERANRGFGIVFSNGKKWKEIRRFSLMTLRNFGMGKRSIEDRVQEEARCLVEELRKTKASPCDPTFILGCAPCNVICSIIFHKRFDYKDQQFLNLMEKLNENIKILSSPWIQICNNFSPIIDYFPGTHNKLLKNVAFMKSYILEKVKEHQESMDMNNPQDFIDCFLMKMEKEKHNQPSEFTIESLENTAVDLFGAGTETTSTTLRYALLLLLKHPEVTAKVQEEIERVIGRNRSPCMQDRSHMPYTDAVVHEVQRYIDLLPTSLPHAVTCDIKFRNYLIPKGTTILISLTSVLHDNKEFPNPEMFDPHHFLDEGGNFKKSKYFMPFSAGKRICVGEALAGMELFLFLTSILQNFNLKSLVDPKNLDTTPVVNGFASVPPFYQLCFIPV
Cytochrome P450 2D6, sequence (P10635 whole entry): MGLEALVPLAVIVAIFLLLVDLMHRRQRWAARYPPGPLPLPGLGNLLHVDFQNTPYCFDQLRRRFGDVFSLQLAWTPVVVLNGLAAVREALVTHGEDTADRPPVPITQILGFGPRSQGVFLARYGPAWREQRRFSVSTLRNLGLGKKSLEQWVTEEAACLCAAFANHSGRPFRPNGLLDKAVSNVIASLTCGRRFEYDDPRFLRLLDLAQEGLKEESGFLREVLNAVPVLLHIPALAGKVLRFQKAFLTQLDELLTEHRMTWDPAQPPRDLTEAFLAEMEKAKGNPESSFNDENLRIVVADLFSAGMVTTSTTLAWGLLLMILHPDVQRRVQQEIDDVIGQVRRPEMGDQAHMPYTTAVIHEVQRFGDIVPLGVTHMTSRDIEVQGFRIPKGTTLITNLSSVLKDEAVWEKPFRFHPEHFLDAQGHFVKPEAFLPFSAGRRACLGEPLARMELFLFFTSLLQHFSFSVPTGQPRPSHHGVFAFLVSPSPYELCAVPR

CCN1C(=O)/C(=C2\SC(N3CCCCC3)=NC2=O)c2ccccc21
AC50 (Cytochrome P450 2D6): 3.16 µM (inconclusive) | AC50 (Cytochrome P450 2C9): inconclusive

CSc1nc(Cl)cc(N(CCO)CCO)n1
AC50 (Cytochrome P450 2C9): inconclusive

CN(Cc1nnc(S)n1C)S(=O)(=O)c1ccccc1
AC50 (Cytochrome P450 2C9): inconclusive

O=C(O)c1cc(-c2ccc3ccccc3c2)nc2ccc(F)cc12
CC50 [1]: 12.1 µM (active) | IC50 (Vero [2]): > 25 µM (active) | IC50 (cells): 19.2 µM (active)

O=C(CSC1=NNC(c2ccccn2)S1)Nc1ccccc1 (centres undefined)
IC50 [3]: > 31.5 µM (inactive) | IC50 [4]: > 32 µM | IC50 [5]: > 118 µM (inactive) | EC50 (Beta-galactosidase): > 31.5 µM (inactive) | IC50 (Exodeoxyribonuclease V): > 118 µM (inactive) | EC50 [6]: 3.04 µM (active) | IC50 (Nonstructural protein 1): 986 nM (active)

Cc1cc(F)ccc1S(=O)(=O)Nc1ccc(O)c(Sc2nnc[nH]2)c1
IC50 [7]: 2.12 µM (active) | IC50 [8]: 5.44 µM (active) | IC50 [9]: 2.3 µM (active)

CN=c1ccc(Br)cc(C(=O)/C=C/c2cccc(Cl)c2Cl)c1O
CC50 (Vero [10]): 18 µM (active) | IC50 (Vero [2]): > 25 µM (active) | CC50 (Vero [11]): 9.23 µM (active)

O=C1Nc2ccccc2C2=NC(CN3CCN(c4cccc(Cl)c4)CC3)CN12 (centres undefined)
AC50 (Cytochrome P450 2C9): inconclusive

CC(=O)Nc1cc([N+](=O)[O-])ccc1OCc1ccccc1
IC50 [12]: > 80 µM (inactive)

O=C(O)CC1SC(N/N=C/c2ccccn2)=NC1=O (centres undefined)
IC50 [5]: > 118 µM (inactive) | IC50 (Exodeoxyribonuclease V): > 118 µM (inactive)
